Laboratory results from US20100004267A1, “LIQUID PREPARATION” (ASUBIO PHARMA CO., LTD., priority 2006, published 2010).
Read-outs that look alike come from different tables or passages of the source.

Columns and labels:
[1] = Examination of solubilizing agent: solubility of SUN N8075 (Test example 1); assay type: physicochemical; conditions: for solubility at 30 min: phosphate-buffered saline with solubilizing agent, 24 °C, kinetic from dmso stock, read-out: Concentration (solubility of SUN N8075)
Method: 8 mg/mL aqueous solution of SUN N8075 was prepared. On the other hand, for each solubilizing agent, an aqueous solution having approximately 0.4% of solubilizing agent was prepared.
10 mL of SUN N8075 aqueous solution and 10 mL of solution of each solubilizing agent were mixed to give Mixture A, and Mixture A was filtered through a filter of 0.22 μm.
6.24 g of sodium dihydrogen phosphate and 16.4 g of sodium chloride were weighed and water was added to make the volume precisely 1,000 mL. To this solution, 1 mol/L sodium hydroxide test solution was added dropwise and the pH value was adjusted to 7.4, which was named Mixture B.
Mixture of each 2.5 mL of Mixture A and Mixture B was provided as a test solution (in each test solution, the concentration of SUN N8075 corresponds to 2 mg/mL, and the concentration of solubilizing agent corresponds to 0.1%).
As for a solubilizing agent of which degree of improving solubility of SUN N8075 was high, tests with concentrations of the added solubilizing agent varied were additionally executed in accordance with the method as described above.

[2] = Stability test based on difference of pH buffer, 6 months (Test example 4); assay type: physicochemical; set-up: key to Insoluble materials: ◯ means absence of insoluble matters; X: × means presence of insoluble matters
Method: According to experimental formulations and target pH shown in Table 4 below, liquid preparations were prepared in the following manner.
After filtering this solution under reduced pressure, 20 mL of this solution was filled into a brown ampule subjected to inner wall treatment by SiO2 glass film (Silicoat ampule; brown 20 mL-volume; available from FUJI GLASS CO., LTD.), and then the ampule was sealed. Using high-pressure steam sterilizer (autoclave), the ampule was autoclaved in a setting condition: 121° C./24 minutes.
The samples were stored at 5° C., 25° C./60% relative humidity (RH), […] were evaluated in time series until a lapse of 6 months, after evaluating presence/absence of insoluble foreign matters after autoclave sterilization. For evaluation of insoluble foreign matters, an appearance checker was used and observation was conducted under 1,000 Lux. […]
Likewise the foregoing (1) liquid preparation with acetic acid buffer system (for pH adjustment, 1 mol/L or 0.1 mol/L hydrochloric acid was used), each sample was prepared according to the experimental formulations and target pH shown in Table 4 below, and each sample was stored at 5° C., 25° C./60% relative humidity (RH), […] were evaluated in time-series until a lapse of 6 months, after evaluating presence/absence of insoluble foreign matters after autoclave sterilization. […]

[3] = acetic acid/sodium acetate buffer, Captisol 10.0%, pH at preparation 3.8 (Table 4 no. 3), 40° C./75% RH/6 months
[4] = acetic acid/sodium acetate buffer, Captisol 10.0%, pH at preparation 4.2 (Table 4 no. 4), 40° C./75% RH/6 months
[5] = glycine buffer, Captisol 7.5%, pH at preparation 3.8 (Table 4 no. 5), 40° C./75% RH/6 months
[6] = glycine buffer, Captisol 7.5%, pH at preparation 4.2 (Table 4 no. 6), 40° C./75% RH/6 months
[7] = glycine buffer, Captisol 10.0%, pH at preparation 3.8 (Table 4 no. 7), 40° C./75% RH/6 months
[8] = glycine buffer, Captisol 10.0%, pH at preparation 4.2 (Table 4 no. 8), 40° C./75% RH/6 months

## Cc1cc(OC[C@@H](O)CN2CCN(c3ccc(Cc4ccc(F)cc4)cc3)CC2)c(C)c(C)c1N [SUN N8075, (2S)-1-(4-amino-2,3,5-trimethylphenoxy)-3-{4-[4-(4-fluorobenzyl)phenyl]-1-piperazinyl}-2-propanol dimethane sulfonate]
[1]; Glycerin 0.1%, pH 6.8
  Appearance of solution: colorless and clear
[1]; HCO-60 0.1%, pH 6.8
  Appearance of solution: colorless and clear
[1]; HCO-60 0.2%, pH 6.9
  Appearance of solution: colorless and clear
[1]; HCO-60 0.5%, pH 6.8
  Appearance of solution: colorless and clear
[1]; Human serum albumin 0.1%, pH 6.8
  Appearance of solution: colorless and clear
[1]; Macrogol 4000 0.1%, pH 6.8
  Appearance of solution: colorless and clear
[1]; Mannitol 0.1%, pH 6.8
  Appearance of solution: colorless and clear
[1]; Nicotinic amide 0.1%, pH 6.8
  Appearance of solution: colorless and clear
[1]; No additive, pH 6.8
  Appearance of solution: colorless and clear
[1]; Propylene glycol 0.1%, pH 6.9
  Appearance of solution: colorless and clear
[1]; Tween80 0.1%, pH 6.8
  Appearance of solution: clouded
[1]; Tween80 0.2%, pH 6.8
  Appearance of solution: clouded
[1]; Tween80 0.5%, pH 6.8
  Appearance of solution: clouded
[1]; Tween80 1.0%, pH 6.8
  Appearance of solution: colorless and clear
[1]; pH 6.5, aqueous with cosolvent or surfactant or cyclodextrin, β-Cyclodextrin derivative 10%, pH 6.5
  solubility at 30 min: 4850 µg/mL
[1]; pH 6.8, aqueous with cosolvent or surfactant or cyclodextrin, HCO-60 0.5%, pH 6.8
  solubility at 30 min: 395 µg/mL
[1]; pH 6.8, aqueous with cosolvent or surfactant or cyclodextrin, HCO-60 (polyoxyethylene hardened castor oil) 0.1%, pH 6.8
  solubility at 30 min: 184 µg/mL
[1]; pH 6.8, aqueous with cosolvent or surfactant or cyclodextrin, Human serum albumin 0.1%, pH 6.8
  solubility at 30 min: 14 µg/mL
[1]; pH 6.8, aqueous with cosolvent or surfactant or cyclodextrin, Tween80 0.1%, pH 6.8
  solubility at 30 min: 745 µg/mL
[1]; pH 6.8, aqueous with cosolvent or surfactant or cyclodextrin, Tween80 0.2%, pH 6.8
  solubility at 30 min: 1830 µg/mL
[1]; pH 6.8, aqueous with cosolvent or surfactant or cyclodextrin, Tween80 0.5%, pH 6.8
  solubility at 30 min: 1790 µg/mL
[1]; pH 6.8, aqueous with cosolvent or surfactant or cyclodextrin, Tween80 1.0%, pH 6.8
  solubility at 30 min: 1820 µg/mL
[1]; pH 6.8, aqueous with cosolvent or surfactant or cyclodextrin, β-Cyclodextrin derivative 0.5%, pH 6.8
  solubility at 30 min: 98 µg/mL
[1]; pH 6.8, aqueous with cosolvent or surfactant or cyclodextrin, β-Cyclodextrin derivative 1.0%, pH 6.8
  solubility at 30 min: 240 µg/mL
[1]; pH 6.9, aqueous with cosolvent or surfactant or cyclodextrin, HCO-60 0.2%, pH 6.9
  solubility at 30 min: 334 µg/mL
[1]; pH 6.9, aqueous with cosolvent or surfactant or cyclodextrin, β-Cyclodextrin 0.1%, pH 6.9
  solubility at 30 min: 26 µg/mL
[1]; pH 6.9, aqueous with cosolvent or surfactant or cyclodextrin, β-Cyclodextrin derivative 5.0%, pH 6.9
  solubility at 30 min: 1420 µg/mL
[1]; β-Cyclodextrin 0.1%, pH 6.9
  Appearance of solution: colorless and clear
[1]; β-Cyclodextrin derivative 0.5%, pH 6.8
  Appearance of solution: colorless and clear
[1]; β-Cyclodextrin derivative 1.0%, pH 6.8
  Appearance of solution: colorless and clear
[1]; β-Cyclodextrin derivative 5.0%, pH 6.9
  Appearance of solution: colorless and clear
[1]; β-Cyclodextrin derivative 10%, pH 6.5
  Appearance of solution: colorless and clear
[1]; β-Cyclodextrin derivative (β-cyclodextrin sulfobutyl ether sodium salt) 0.1%, pH 6.8
  Appearance of solution: colorless and clear
[2]; acetic acid/sodium acetate buffer, Captisol 7.5%, pH at preparation 3.8 (Table 4 no. 1), 5° C./6 months
  Insoluble materials: ◯
[2]; acetic acid/sodium acetate buffer, Captisol 7.5%, pH at preparation 3.8 (Table 4 no. 1), 25° C./60% RH
  Storage period at which generation of insoluble matters was observed: (6 months)
[2]; acetic acid/sodium acetate buffer, Captisol 7.5%, pH at preparation 3.8 (Table 4 no. 1), 25° C./60% RH/6 months
  Insoluble materials: X
[2]; acetic acid/sodium acetate buffer, Captisol 7.5%, pH at preparation 3.8 (Table 4 no. 1), 40° C./60% RH/6 months
  Insoluble materials: ◯
[2]; acetic acid/sodium acetate buffer, Captisol 7.5%, pH at preparation 3.8 (Table 4 no. 1), 40° C./75% RH/6 months
  pH: 2.74
[2]; acetic acid/sodium acetate buffer, Captisol 7.5%, pH at preparation 3.8 (Table 4 no. 1), just after autoclave sterilization
  Insoluble materials: ◯
[2]; acetic acid/sodium acetate buffer, Captisol 7.5%, pH at preparation 4.2 (Table 4 no. 2), 5° C./6 months
  Insoluble materials: ◯
[2]; acetic acid/sodium acetate buffer, Captisol 7.5%, pH at preparation 4.2 (Table 4 no. 2), 25° C./60% RH/6 months
  Insoluble materials: ◯
[2]; acetic acid/sodium acetate buffer, Captisol 7.5%, pH at preparation 4.2 (Table 4 no. 2), 40° C./60% RH
  Storage period at which generation of insoluble matters was observed: (3 months)
[2]; acetic acid/sodium acetate buffer, Captisol 7.5%, pH at preparation 4.2 (Table 4 no. 2), 40° C./60% RH/6 months
  Insoluble materials: X
[2]; acetic acid/sodium acetate buffer, Captisol 7.5%, pH at preparation 4.2 (Table 4 no. 2), 40° C./75% RH/6 months
  pH: 2.96
[2]; acetic acid/sodium acetate buffer, Captisol 7.5%, pH at preparation 4.2 (Table 4 no. 2), just after autoclave sterilization
  Insoluble materials: ◯
[2]; acetic acid/sodium acetate buffer, Captisol 10.0%, pH at preparation 3.8 (Table 4 no. 3), 5° C./6 months
  Insoluble materials: ◯
[2]; acetic acid/sodium acetate buffer, Captisol 10.0%, pH at preparation 3.8 (Table 4 no. 3), 25° C./60% RH/6 months
  Insoluble materials: ◯
[2]; [3]
  Insoluble materials: ◯
  pH: 2.60
[2]; acetic acid/sodium acetate buffer, Captisol 10.0%, pH at preparation 3.8 (Table 4 no. 3), just after autoclave sterilization
  Insoluble materials: ◯
[2]; acetic acid/sodium acetate buffer, Captisol 10.0%, pH at preparation 4.2 (Table 4 no. 4), 5° C./6 months
  Insoluble materials: ◯
[2]; acetic acid/sodium acetate buffer, Captisol 10.0%, pH at preparation 4.2 (Table 4 no. 4), 25° C./60% RH/6 months
  Insoluble materials: ◯
[2]; [4]
  Insoluble materials: ◯
  pH: 2.82
[2]; acetic acid/sodium acetate buffer, Captisol 10.0%, pH at preparation 4.2 (Table 4 no. 4), just after autoclave sterilization
  Insoluble materials: ◯
[2]; glycine buffer, Captisol 7.5%, pH at preparation 3.8 (Table 4 no. 5), 5° C./6 months
  Insoluble materials: ◯
[2]; glycine buffer, Captisol 7.5%, pH at preparation 3.8 (Table 4 no. 5), 25° C./60% RH/6 months
  Insoluble materials: ◯
[2]; [5]
  Insoluble materials: ◯
  pH: 3.46
[2]; glycine buffer, Captisol 7.5%, pH at preparation 3.8 (Table 4 no. 5), just after autoclave sterilization
  Insoluble materials: ◯
[2]; glycine buffer, Captisol 7.5%, pH at preparation 4.2 (Table 4 no. 6), 5° C./6 months
  Insoluble materials: ◯
[2]; glycine buffer, Captisol 7.5%, pH at preparation 4.2 (Table 4 no. 6), 25° C./60% RH/6 months
  Insoluble materials: ◯
[2]; [6]
  Insoluble materials: ◯
  pH: 3.73
[2]; glycine buffer, Captisol 7.5%, pH at preparation 4.2 (Table 4 no. 6), just after autoclave sterilization
  Insoluble materials: ◯
[2]; glycine buffer, Captisol 10.0%, pH at preparation 3.8 (Table 4 no. 7), 5° C./6 months
  Insoluble materials: ◯
[2]; glycine buffer, Captisol 10.0%, pH at preparation 3.8 (Table 4 no. 7), 25° C./60% RH/6 months
  Insoluble materials: ◯
[2]; [7]
  Insoluble materials: ◯
  pH: 3.49
[2]; glycine buffer, Captisol 10.0%, pH at preparation 3.8 (Table 4 no. 7), just after autoclave sterilization
  Insoluble materials: ◯
[2]; glycine buffer, Captisol 10.0%, pH at preparation 4.2 (Table 4 no. 8), 5° C./6 months
  Insoluble materials: ◯
[2]; glycine buffer, Captisol 10.0%, pH at preparation 4.2 (Table 4 no. 8), 25° C./60% RH/6 months
  Insoluble materials: ◯
[2]; [8]
  Insoluble materials: ◯
  pH: 3.74
[2]; glycine buffer, Captisol 10.0%, pH at preparation 4.2 (Table 4 no. 8), just after autoclave sterilization
  Insoluble materials: ◯
